The results in this text go back to US10780090B2, “Heteroaryl compounds useful as inhibitors of SUMO activating enzyme” (Millennium Pharmaceuticals, Inc., priority 2014, dated 2020).

The experiment deals with recombinant human SAE enzyme (Homo sapiens (Human), UniProt Q9UBT2). Put plainly: SAE HTRF enzyme assay. The following applies: for Percent Inhibition: Concentration 0.111 μM; for IC50: class symbols A/B/C. It counts as biochemical. The method, then: Example 215: SAE HTRF enzyme assay
The SAE enzymatic reaction totals 50 μl and contains 50 mM HEPES Hemisodium (pH 7.5), 0.05% BSA, 5 mM MgCl2, 0.5 μM ATP, 250 μM GSH, 0.01 μM Ubc9-GST, 0.125 μM Sumo-Flag and 0.11 nM recombinant human SAE enzyme. The enzymatic reaction mixture, with and without inhibitor, Is incubated at 24° C. for 105 min in a 384-well plate before termination with […] of Stop/Detection buffer (0.1M HEPES Hemisodium pH 7.5, 0.05% Tween20, 20 mM EDTA, 410 mM KF, 0.53 nM Europium-Cryptate labeled monoclonal anti-Flag M2 Antibody (CisBio International) and 8.125 μg/ml PHYCOLINK goat anti-GST allophycocyanin (XL-APC) antibody (Prozyme)). After incubation for 2 hours at 24° C., quantification of FRET is performed on the Pherostar™ (BMG Labtech). Percentage inhibition values at a single concentration or enzyme inhibition (IC50) values are determined from those curves. One skilled in the art will appreciate that the values generated either as percentage inhibition at a single concentration or IC50 values are subject to experimental variation.
For orientation: In TR-FRET formats the signal depends on donor and acceptor labels being close together.

Chain of recombinant human SAE enzyme (Q9UBT2 whole entry): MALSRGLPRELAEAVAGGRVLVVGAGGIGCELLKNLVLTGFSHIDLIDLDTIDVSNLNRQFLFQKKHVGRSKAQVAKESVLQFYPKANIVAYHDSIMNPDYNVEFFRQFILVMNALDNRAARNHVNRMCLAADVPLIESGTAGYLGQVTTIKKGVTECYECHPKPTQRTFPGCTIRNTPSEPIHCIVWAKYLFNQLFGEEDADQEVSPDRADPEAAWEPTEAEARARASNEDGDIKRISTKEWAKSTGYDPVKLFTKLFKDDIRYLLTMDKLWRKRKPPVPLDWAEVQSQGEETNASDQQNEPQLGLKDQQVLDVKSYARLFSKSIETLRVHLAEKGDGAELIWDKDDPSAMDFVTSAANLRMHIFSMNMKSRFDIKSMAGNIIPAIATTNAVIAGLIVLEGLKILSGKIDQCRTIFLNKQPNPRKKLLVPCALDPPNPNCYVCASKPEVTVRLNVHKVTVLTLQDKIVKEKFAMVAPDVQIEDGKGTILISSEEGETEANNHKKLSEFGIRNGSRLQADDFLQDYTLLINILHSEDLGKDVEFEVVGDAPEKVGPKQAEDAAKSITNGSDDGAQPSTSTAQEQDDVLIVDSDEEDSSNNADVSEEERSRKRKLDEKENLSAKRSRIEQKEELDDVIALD
Chain of recombinant human SAE enzyme (Q9UBE0 whole entry partner): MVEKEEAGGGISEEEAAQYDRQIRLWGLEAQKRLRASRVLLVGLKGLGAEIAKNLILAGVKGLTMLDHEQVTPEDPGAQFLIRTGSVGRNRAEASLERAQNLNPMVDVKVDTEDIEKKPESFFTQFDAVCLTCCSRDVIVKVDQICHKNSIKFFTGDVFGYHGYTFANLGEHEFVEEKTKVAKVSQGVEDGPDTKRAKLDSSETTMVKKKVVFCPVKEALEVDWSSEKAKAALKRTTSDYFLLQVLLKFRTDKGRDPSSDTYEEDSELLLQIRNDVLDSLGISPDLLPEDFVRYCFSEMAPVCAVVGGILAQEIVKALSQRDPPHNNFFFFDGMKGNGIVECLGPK

For `NC(c1cccc(Br)n1)c1cc(C(=O)c2cncnc2NC2CC(O)C(COS(N)(=O)=O)C2)sc1Cl` (mixture of isomers) [I-18, [(1R,2S,4R)-4-{[5-({4-[(R)-amino(6-bromopyridin-2-yl)methyl]-5-chloro-2-thienyl}carbonyl)pyrimidin-4-yl]amino}-2-hydroxycyclopentyl]methyl sulfamate and [(1R,2S,4R)-4-{[5-({4-[(S)-amino(6-bromopyridin-2-yl)methyl]-5-chloro-2-thienyl}carbonyl)pyrimidin-4-yl]amino}-2-hydroxycyclopentyl]methyl sulfamate], the “Percent Inhibition” value was 99 and the half-inhibitory concentration (IC50) (in general, the concentration needed to halve the response being measured) was under 10 nM.

In the case of `NS(=O)(=O)OCC1CC(Nc2ncncc2C(=O)c2cc(C(O)c3cc(Br)ccc3F)cs2)CC1O` (mixture of isomers) [I-19, [(1R,2S,4R)-4-{[5-({4-[(R)-(5-bromo-2-fluorophenyl)(hydroxy)methyl]-2-thienyl}carbonyl)pyrimidin-4-yl]amino}-2-hydroxycyclopentyl]methyl sulfamate and [(1R,2S,4R)-4-{[5-({4-[(S)-(5-bromo-2-fluorophenyl)(hydroxy)methyl]-2-thienyl}carbonyl)pyrimidin-4-yl]amino}-2-hydroxycyclopentyl]methyl sulfamate], the “Percent Inhibition” value is reported as 100 and the 50% inhibitory concentration (IC50) was under 10 nM.

Turning to `NC(c1cccc(Br)c1)c1cc(C(=O)c2cncnc2NC2CC(O)C(COS(N)(=O)=O)C2)sc1Cl` (mixture of isomers) [I-22, [(1R,2S,4R)-4-{[5-({4-[(R)-amino(3-bromophenyl)methyl]-5-chloro-2-thienyl}carbonyl)pyrimidin-4-yl]amino}-2-hydroxycyclopentyl]methyl sulfamate and [(1R,2S,4R)-4-{[5-({4-[(S)-amino(3-bromophenyl)methyl]-5-chloro-2-thienyl}carbonyl)pyrimidin-4-yl]amino}-2-hydroxycyclopentyl]methyl sulfamate], the “Percent Inhibition” value came to 99 and the IC50 is under 10 nM.

In the case of `NC(c1cccc(Cl)n1)c1cc(C(=O)c2cncnc2NC2CC(O)C(COS(N)(=O)=O)C2)sc1Cl` (mixture of isomers) [I-25, [(1R,2S,4R)-4-{[5-({4-[(S)-amino(6-chloropyridin-2-yl)methyl]-5-chloro-2-thienyl}carbonyl)pyrimidin-4-yl]amino}-2-hydroxycyclopentyl]methyl sulfamate and [(1R,2S,4R)-4-{[5-({4-[(R)-amino(6-chloropyridin-2-yl)methyl]-5-chloro-2-thienyl}carbonyl)pyrimidin-4-yl]amino}-2-hydroxycyclopentyl]methyl sulfamate], the “Percent Inhibition” value amounted to 98 and the IC50 was under 10 nM.

Turning to `Cc1sc(C(=O)c2cncnc2N[C@@H]2C[C@H](COS(N)(=O)=O)[C@@H](O)C2)cc1[S@+]([O-])c1cccc(Cl)c1.Cc1sc(C(=O)c2cncnc2N[C@@H]2C[C@H](COS(N)(=O)=O)[C@@H](O)C2)cc1[S@@+]([O-])c1cccc(Cl)c1` (mixture of isomers) [I-28, [(1R,2S,4R)-4-{[5-({4-[(R)-(3-chlorophenyl)sulfinyl]-5-methyl-2-thienyl}carbonyl)pyrimidin-4-yl]amino}-2-hydroxycyclopentyl]methyl sulfamate and [(1R,2S,4R)-4-{[5-({4-[(S)-(3-chlorophenyl)sulfinyl]-5-methyl-2-thienyl}carbonyl)pyrimidin-4-yl]amino}-2-hydroxycyclopentyl]methyl sulfamate], the “Percent Inhibition” value is reported as 98 and the IC50 was under 10 nM.

With `NS(=O)(=O)OCC1CC(Nc2ncncc2C(=O)c2cc(C(O)c3cccc(Cl)n3)cs2)CC1O` (mixture of isomers) [I-29, [(1R,2S,4R)-4-({5-[{4-[(S)-(6-Chloropyridin-2-yl)(hydroxy)methyl]-2-thienyl}carbonyl)pyrimidin-4-yl]amino}-2-hydroxycyclopentyl]methyl sulfamate and [(1R,2S,4R)-4-{[5-({4-[(R)-(6-Chloropyridin-2-yl)(hydroxy)methyl]-2-thienyl}carbonyl)pyrimidin-4-yl]amino}-2-hydroxycyclopentyl]methyl sulfamate], the “Percent Inhibition” value is reported as 100 and the IC50 is under 10 nM.

With `CC(O)(c1cccc(Cl)c1)c1coc(C(=O)c2cncnc2NC2CC(O)C(COS(N)(=O)=O)C2)c1` (mixture of isomers) [I-30, {(1R,2S,4R)-4-[(5-{4-[(1S)-1-(3-chlorophenyl)-1-hydroxyethyl]-2-furoyl}pyrimidin-4-yl)amino]-2-hydroxycyclopentyl}methyl sulfamate and {(1R,2S,4R)-4-[(5-{4-[(1R)-1-(3-chlorophenyl)-1-hydroxyethyl]-2-furoyl}pyrimidin-4-yl)amino]-2-hydroxycyclopentyl}methyl sulfamate], the “Percent Inhibition” value amounted to 98 and the IC50 is under 10 nM.

As for `NS(=O)(=O)OC[C@H]1C[C@@H](Nc2ncncc2C(=O)c2cc([C@@]3(c4ccccc4)CCCO3)cs2)C[C@@H]1O` (mixture of isomers) [I-32, [(1R,2S,4R)-2-hydroxy-4-{[5-({4-[(2S)-2-phenyltetrahydrofuran-2-yl]-2-thienyl}carbonyl)pyrimidin-4-yl]amino}cyclopentyl]methyl sulfamate and [(1R,2S,4R)-2-hydroxy-4-{[5-({4-[(2R)-2-phenyltetrahydrofuran-2-yl]-2-thienyl}carbonyl)pyrimidin-4-yl]amino}cyclopentyl]methyl sulfamate], the “Percent Inhibition” value turned out to be 98 and the IC50 is under 10 nM.

For the compound `N[C@H](c1cccc(Cl)c1)c1csc(C(=O)c2cncnc2N[C@@H]2C[C@H](COS(N)(=O)=O)[C@@H](O)C2)c1` (mixture of isomers) [I-36, [(1R,2S,4R)-4-{[5-({4-[(R)-amino(3-chlorophenyl)methyl]-2-thienyl}carbonyl)pyrimidin-4-yl]amino}-2-hydroxycyclopentyl]methyl sulfamate and [(1R,2S,4R)-4-{[5-({4-[(S)-amino(3-chlorophenyl)methyl]-2-thienyl}carbonyl)pyrimidin-4-yl]amino}-2-hydroxycyclopentyl]methyl sulfamate], the “Percent Inhibition” value stood at 100 and the IC50 is under 10 nM.

Consider `NS(=O)(=O)OC[C@H]1C[C@@H](Nc2ncncc2C(=O)c2cc([C@@]3(c4cccc(Cl)c4)CCCN3)cs2)C[C@@H]1O` (mixture of isomers) [I-38, [(1R,2S,4R)-4-{[5-({4-[(2S)-2-(3-chlorophenyl)pyrrolidin-2-yl]-2-thienyl}carbonyl)pyrimidin-4-yl]amino}-2-hydroxycyclopentyl]methyl sulfamate and [(1R,2S,4R)-4-{[5-({4-[(2R)-2-(3-chlorophenyl)pyrrolidin-2-yl]-2-thienyl}carbonyl)pyrimidin-4-yl]amino}-2-hydroxycyclopentyl]methyl sulfamate], for which the “Percent Inhibition” value amounted to 101 and the concentration for half-maximal inhibition (IC50) was under 10 nM.

Regarding `NS(=O)(=O)OC[C@H]1C[C@@H](Nc2ncncc2C(=O)c2cc([C@H](O)c3cccc(Cl)c3F)c(Cl)s2)C[C@@H]1O` (mixture of isomers) [I-40, [(1R,2S,4R)-4-{[5-({5-chloro-4-[(R)-(3-chloro-2-fluorophenyl)(hydroxy)methyl]-2-thienyl}carbonyl)pyrimidin-4-yl]amino}-2-hydroxycyclopentyl]methyl sulfamate and [(1R,2S,4R)-4-{[5-({5-chloro-4-[(S)-(3-chloro-2-fluorophenyl)(hydroxy)methyl]-2-thienyl}carbonyl)pyrimidin-4-yl]amino}-2-hydroxycyclopentyl]methyl sulfamate], the “Percent Inhibition” value amounted to 96 and the IC50 was under 10 nM.

As for `NS(=O)(=O)OC[C@H]1C[C@@H](Nc2ncncc2C(=O)c2cc(Cc3cccc(Cl)c3)c([C@@H]3CCCO3)s2)C[C@@H]1O` (mixture of isomers) [I-41, [(1R,2S,4R)-4-{[5-({4-(3-chlorobenzyl)-5-[(2S)-tetrahydrofuran-2-yl]-2-thienyl}carbonyl)pyrimidin-4-yl]amino}-2-hydroxycyclopentyl]methyl sulfamate and [(1R,2S,4R)-4-{[5-({4-(3-chlorobenzyl)-5-[(2R)-tetrahydrofuran-2-yl]-2-thienyl}carbonyl)pyrimidin-4-yl]amino}-2-hydroxycyclopentyl]methyl sulfamate], the “Percent Inhibition” value stood at 99 and the IC50 was under 10 nM.

In the case of `NS(=O)(=O)OC[C@H]1C[C@@H](Nc2ncncc2C(=O)c2cc([C@@H](O)c3cccc(Cl)c3)co2)C[C@@H]1O.NS(=O)(=O)OC[C@H]1C[C@@H](Nc2ncncc2C(=O)c2cc([C@H](O)c3cccc(Cl)c3)co2)C[C@@H]1O` (mixture of isomers) [I-42, {(1R,2S,4R)-4-[(5-{4-[(R)-(3-chlorophenyl)(hydroxy)methyl]-2-furoyl}pyrimidin-4-yl)amino]-2-hydroxycyclopentyl}methyl sulfamate and {(1R,2S,4R)-4-[(5-{4-[(S)-(3-chlorophenyl)(hydroxy)methyl]-2-furoyl}pyrimidin-4-yl)amino]-2-hydroxycyclopentyl}methyl sulfamate], the “Percent Inhibition” value is on record as 98 and the IC50 was under 10 nM.
